# Test results reported in paper PMC5007466, “VCP recruitment to mitochondria causes mitophagy impairment and neurodegeneration in models of Huntington's disease” (Nature Communications, 2016).
# Key:
# [1] = tested on: VCP/Htt interaction (GST-VCP with full-length Htt of mouse brain lysate); assay: GST pull-down of VCP/Htt interaction; type: binding; conditions: GST-VCP + total mouse brain lysate, 3 µM peptide, 16 h, n = 3
# Experimental: Bacteria-expressed GST or GST–VCP, or GST–VCP truncated mutants were immobilized on glutathione-Sepharose 4B beads (GE Healthcare) for three hours and then washed three times. Beads were incubated with total lysates of mouse brains overnight at 4 °C. Beads were then washed with a GST binding buffer (100 mM NaCl, 50 mM NaF, 2 mM EDTA, 1% Triton-X-100 and protease inhibitor cocktail) and were analysed by SDS–PAGE and IB.
# Supplementary Figure 4: Rational design of a peptide inhibitor to block VCP/Htt interaction. (a) GST or GST-VCP was incubated with total lysates of mouse brain and the indicated peptides ( 3 µM) for 16 hours, followed by immunoblotting with anti-Htt antibodies. Representative blots are from three independent experiments. Quantitation of VCP/Htt binding was shown below the blot as the m ean of three independent experiments. Data are mean ± SEM. *, p<0.05 vs. T AT -treated group (Paired Student’s t test). (b) HEK293 cells were co-expressed with GFP-VCP and Myc-73Q FL plasmids as indicated. After 48 hours incubation with the indicated peptides ( 3 µM/day, each), immunoprecipitation analysis was performed. The shown blots are from three independent experiments. (c) HEK293 cells were co-expressed with GFP-VCP and Myc-73Q FL plasmids as indicated. […] The blots of the bindings of mtHtt/VCP were quantitated with NIH Image J software. The IC50 was calculated. […]
# [2] = tested on: C57Black mice; assay: Blood biochemistry of naive mice; type: in vivo, mouse; conditions: 3 mg/kg/day, 4 weeks
# Experimental: Supplementary Figure 8 : Toxicity analysis of HV -3in naïve mice .
# We performed a toxicity analysis of HV-3 in mice. Six -week-old C57Black mice were treated with saline or peptide HV-3 at 3mg/kg/day by Alzet pump implantation. After 4- week treatment, the plasma, blood and whole mouse bodies of mice were collected. Examination on blood chemistry (Supplementary Table 1), hematology (Supplementary Table 2) and general necropsy of mice were performed at the Animal Diagnostic Laboratory at Stanford University. The experimenter who conducted the analysis was blind to the treatment groups. Automated hematology was performed on the Sysmex XT-2000iV analyzer system. Blood smears were made for all full CBC samples and reviewed by a medical technologist. Manual differentials were performed as indicated by species and automated analysis. Chemistry analysis was performed on the Siemens Dimension Xpand analyzer. […]
# Student’s t test. Four-week sustained treatment with HV-3 by pump implantation had no effects on blood chemistry (Supplementary Table 1), hematology (Supplementary Table 2), and gross necropsy of naïve mice when compared to mice treated with saline. A four-week treatment with HV-3 had […] on immuno-density of CD3, a marker of T-cell for adaptive immune response, in the brains and spleens of naïve mice (a). Treatment with HV-3 had no effects on the size and weight of the spleens (b). […]
# Table 1: Effects of 4-w eek treatment w ith HV-3 on blood biochemistry of naïve mice […]
# M ean SD M ean SD p-value unit n
structure (smiles),measurement,setting,value
CSCC[C@H](NC(=O)[C@@H](NC(=O)[C@H](CC(C)C)NC(=O)[C@@H](NC(=O)[C@H](Cc1c[nH]cn1)NC(=O)CCCCCNC(=O)[C@H](CCCNC(=N)N)NC(=O)[C@H](CCCNC(=N)N)NC(=O)[C@H](CCCNC(=N)N)NC(=O)[C@H](CCC(N)=O)NC(=O)[C@H](CCCNC(=N)N)NC(=O)[C@H](CCCNC(=N)N)NC(=O)[C@H](CCCCN)NC(=O)[C@H](CCCCN)NC(=O)[C@H](CCCNC(=N)N)NC(=O)CNC(=O)[C@@H](N)Cc1ccc(O)cc1)C(C)C)C(C)C)C(=O)N[C@@H](CS)C(=O)N[C@@H](C)C(=O)N[C@H](C(N)=O)[C@@H](C)O [HV-3],block of VCP/Htt interaction,[1],only the addition of peptide HV-3 blocks the interaction of VCP/Htt
same,ALT,"[2]; mean, n = 4/group",71.00 U/L
same,AST,"[2]; mean, n = 4/group",237.25 U/L
same,Albumin,"[2]; mean, n = 4/group",2.95 g/dL
same,Alkaline Phosphatase,"[2]; mean, n = 4/group",108.00 IU/L
same,Anion Gap,"[2]; mean, n = 4/group",33.08 mmol/L
same,BUN,"[2]; mean, n = 4/group",27.50 mg/dL
same,Carbon Dioxide,"[2]; mean, n = 4/group",16.45 mmol/L
same,Chloride,"[2]; mean, n = 4/group",109.00 mmol/L
same,Creatinine,"[2]; mean, n = 4/group",0.40 mg/dL
same,Globulin,"[2]; mean, n = 4/group",2.20
same,Glucose,"[2]; mean, n = 4/group",312.25 mg/dL
same,Na/K Ratio,"[2]; mean, n = 4/group",20.96
same,Phosphorus,"[2]; mean, n = 4/group",8.45 mg/dL
same,Potassium,"[2]; mean, n = 4/group",7.28 mmol/L
same,Sodium,"[2]; mean, n = 4/group",151.25 mmol/L
same,T.Protein,"[2]; mean, n = 4/group",5.15 g/dL
same,Total Bilirubin,"[2]; mean, n = 4/group",0.13 mg/dL
same,Calcium,"[2]; mean, n = 4/group, p 0.04 versus saline",9.78 mg/dL
same,blood chemistry (overall),[2]; versus saline,no effects
